Laboratory results: publication PMC8378262 (Journal of controlled release : official journal of the …, 2021)

System: Sprague Dawley rats
Test: Mean systemic arterial pressure
Type: in vivo
Details: healthy rats, intravenous 3 mg/kg

Structure (SMILES)	change in mSAP (until 6 h after injection)	duration of the reduction in mSAP after injection [min]	maximum reduction of mSAP from baseline (within 30 min) [%]
O=[N+]([O-])c1ccc(COc2nccc3c(S(=O)(=O)N4CCCNCC4)cccc23)cc1 [FasPRO, 5-((1,4-diazepan-1-yl)sulfonyl)-1-((4-nitrobenzyl)oxy)isoquinoline]	did not produce any changes in mSAP		
O=S(=O)(c1cccc2cnccc12)N1CCCNCC1 [Fasudil, reference compound]		90	38.6±8.4
